Laboratory results published in PubChem BioAssay AID743440 (Broad Institute, 2014).
Calls of active or inactive are those of the source.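 How the source made its calls: active means AC50 for cell killing below 10 µM, with the signal falling as expected; inactive means the rest, including compounds acting in the opposite direction.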

Tested on: HepG2 viability, ATP luminescence (CellTiter-Glo), 72 h
Assay: toxicity toward HepG2 liver cells – cell-based, plate reader, dry powder, set 11, cytotoxicity control, dose response (AID 743440)
Details: not given

| SMILES | AC50 |
| --- | --- |
| CC(Sc1c2c(nc3ccc(Cl)cc13)CCCC2)C(=O)NCc1ccco1 (configuration not stated) | > 52 µM (inactive) |
| O=C(CSc1c2c(nc3ccc(Cl)cc13)CCCC2)NC1CC1 | > 52 µM (inactive) |
| O=C(CSc1c2c(nc3cc(Cl)ccc13)CCCC2)N(Cc1ccco1)C1CCCC1 | > 52 µM (inactive) |
| CCN(CC)CCCNC(=O)c1ccc(OCC(=O)Nc2ccccc2C(F)(F)F)c(OC)c1 | > 52 µM (inactive) |
| Cc1ccc(CNC(=O)CSc2c3c(nc4ccc(Cl)cc24)CCCC3)cc1 | > 52 µM (inactive) |
| COc1cc(C(=O)NCCCN(C)C)ccc1OCC(=O)Nc1cccc(C(F)(F)F)c1 | > 52 µM (inactive) |
| CC1(C)CC(NC(=O)c2ccc(OCC(=O)Nc3cccc(C(F)(F)F)c3)cc2)CC(C)(C)N1 | > 52 µM (inactive) |
| O=C(CSc1c2c(nc3ccc(Cl)cc13)CCCC2)NC1CCN(Cc2ccccc2)CC1 | 26.3 µM |
| CN(CCNC(=O)CSc1c2c(nc3ccc(Cl)cc13)CCCC2)Cc1ccccc1 | > 52 µM (inactive) |
| CCN1CCCC1CNC(=O)CSc1c2c(nc3ccc(Cl)cc13)CCCC2 (configuration not stated) | 16.1 µM |
| COCCNC(=O)CSc1c2c(nc3ccc(Cl)cc13)CCCC2 | > 52 µM (inactive) |
| O=C(CSc1c2c(nc3ccccc13)CCCC2)NCc1ccco1 | > 52 µM (inactive) |
| COc1ccc(CNC(=O)CSc2c3c(nc4ccc(Cl)cc24)CCCC3)cc1 | > 52 µM (inactive) |
| CN(C(=O)COc1ccccc1C(=O)NCCc1ccccc1)c1ccccc1 | > 52 µM (inactive) |
| CCCCOc1ccc(NC(=O)COc2ccccc2C(=O)NCCOc2ccccc2)cc1 | > 52 µM (inactive) |
| O=C(CSc1c2c(nc3ccc(Cl)cc13)CCCC2)N1CCOCC1 | > 52 µM (inactive) |
| O=C(CSc1c2c(nc3ccc(Cl)cc13)CCCC2)NCc1ccc2c(c1)OCO2 | > 52 µM (inactive) |
| CCCNC(=O)CSc1c2c(nc3ccc(Cl)cc13)CCCC2 | > 52 µM (inactive) |
| Cc1ccc(CNC(=O)CSc2c3c(nc4ccc(Cl)cc24)CCCC3)o1 | > 52 µM (inactive) |
| COc1cc(CNCCCN2CCOCC2)ccc1OCC(=O)Nc1cccc(C(F)(F)F)c1 | > 24 µM (inactive) |
| O=C(CSc1c2c(nc3ccc(Cl)cc13)CCCC2)Nc1ccc(Cl)cc1 | > 52 µM (inactive) |
| O=C(COc1ccccc1C(=O)NCCOc1ccc(Cl)cc1)Nc1cccc(Cl)c1 | > 52 µM (inactive) |
| Cc1cccc(NC(=O)CSc2c3c(nc4ccc(Cl)cc24)CCCC3)n1 | 26.2 µM |
| O=C(COc1ccc(C(=O)NC2CCCCC2)cc1)Nc1cccc(C(F)(F)F)c1 | > 52 µM (inactive) |
| O=C(CSc1c2c(nc3ccc(Cl)cc13)CCCC2)N1CCN(Cc2ccccc2)CC1 | > 52 µM (inactive) |

Tested on: not listed separately
Assay: as above
Details: HepG2 viability, ATP luminescence (CellTiter-Glo), 72 h; at 12 µM (top of the series)

| SMILES | activity change, negative = cytotoxicity |
| --- | --- |
| O=C(CSc1c2c(nc3ccc(Cl)cc13)CCCC2)NCc1cccs1 | -11.9% (inactive) |

Same assay, conditions: HepG2 viability, ATP luminescence (CellTiter-Glo), 72 h; at 26 µM (top of the series)

| SMILES | activity change, negative = cytotoxicity |
| --- | --- |
| Cc1ccc2nc(Cl)cc(SCC(=O)NCc3ccco3)c2c1 | -16.7% (inactive) |
| CN(C(=O)COc1ccc(Cl)cc1C(N)=O)c1ccccc1 | 6.24% (inactive) |
| O=C(COc1ccccc1C(=O)NCc1ccccc1)Nc1ccccc1 | -9.2% (inactive) |
| NC(=O)C1CCN(C(=O)c2ccc(OCC(=O)Nc3cccc(C(F)(F)F)c3)cc2)CC1 | -3.5% (inactive) |
| CCOC(=O)C1CCN(C(=O)c2ccc(OCC(=O)Nc3ccc(OCC)cc3)c(OC)c2)CC1 | -2.93% (inactive) |
| O=C(COc1ccc(C(=O)N2CCC2)cc1)Nc1cccc(C(F)(F)F)c1 | -3.29% (inactive) |
| O=C(CSc1c2c(nc3ccc(Cl)cc13)CCCC2)N1CCCCC1 | -19.8% (inactive) |
| CN(C(=O)COc1ccccc1C(=O)Nc1ccccc1)c1ccccc1 | -11.2% (inactive) |
| O=C(CSc1c2c(nc3ccc(Cl)cc13)CCCC2)N1CCNC1=O | -15.2% (inactive) |
| CN(C)c1ccc(NC(=O)COc2ccccc2C(=O)N2CCOCC2)cc1 | 8.33% (inactive) |
| O=C(COc1ccc(C(=O)N2CCN(C(=O)C3CC3)CC2)cc1)Nc1cccc(C(F)(F)F)c1 | -22.9% (inactive) |
| CCOC(=O)C1CCN(C(=O)c2ccc(OCC(=O)N3CCOCC3)c(OC)c2)CC1 | -12.3% (inactive) |
| O=C(CSc1cccc2cccnc12)NCc1ccco1 | 9.13% (inactive) |
| CN(C(=O)COc1ccccc1C(N)=O)c1ccccc1 | 2.01% (inactive) |
| O=C(COc1ccc(C(=O)NCC2CCCO2)cc1)Nc1cccc(C(F)(F)F)c1 (configuration not stated) | -9.73% (inactive) |
| CN(CCOc1ccccc1)C(=O)c1ccc(OCC(=O)Nc2cccc(C(F)(F)F)c2)cc1 | -1.92% (inactive) |
| COc1ccc(OCCNC(=O)c2ccccc2OCC(=O)Nc2ccc(NC(C)=O)cc2)cc1 | -7.48% (inactive) |
| Cn1cc(SCC(=O)NCc2ccco2)c2ccccc21 | -5.75% (inactive) |
| O=C(CSc1ccc2ccccc2n1)NCc1ccco1 | -2.89% (inactive) |
| CCN(CC)C(=O)CSc1c2c(nc3ccc(Cl)cc13)CCCC2 | -8.05% (inactive) |
| CCOc1ccc(NC(=O)COc2ccc(C(=O)N3CCC(C(N)=O)CC3)cc2OC)cc1 | -12.6% (inactive) |
| Cn1c(=O)cc(SCC(=O)NCc2ccco2)c2ccccc21 | 2.16% (inactive) |
| COc1ccc(N(Cc2cccs2)C(=O)COc2ccccc2C(=O)Nc2ccccc2)cc1 | -1.88% (inactive) |
| Cc1ccc(NC(=O)COc2ccccc2C(=O)NCCN(C)C)cc1 | -14.7% (inactive) |
| COC(=O)CCCN(C)C(=O)c1ccc(OCC(=O)Nc2cccc(OC)c2)cc1 | -8.54% (inactive) |
| O=C(O)CSc1c2c(nc3cc(C(=O)NCc4cccs4)ccc13)CCCC2 | -3.5% (inactive) |
